Values joined by “and” are separate entries in the source; they are usually repeats but may differ in a detail not shown here. Identical values can stand only once.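 Results reflect a 48-hour exposure of cells in 96-well plates to compound at five concentrations. Here, GI50 denotes the concentration required for 50% inhibition of growth. TGI is the concentration that stops growth completely.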 Where a SMILES comes first, the peptide text is derived from it. [ ]: non-standard residue; d: D form.
Columns and labels:
Test in all cases: DTP human tumour cell line panel, 48 h
[1] = tested on: ACHN renal
[2] = tested on: HCT-15 colon
[3] = tested on: HOP-92 NSCLC
[4] = tested on: HS 578T breast
[5] = tested on: KM12 colon
[6] = tested on: PC-3 prostate
[7] = tested on: SF-295 CNS
[8] = tested on: SK-OV-3 ovarian
[9] = tested on: SNB-75 CNS
[10] = tested on: T-47D breast

| Structure (SMILES) | GI50 [1] [µM] | TGI [1] | GI50 [2] [µM] | TGI [2] [µM] | GI50 [3] [µM] | TGI [3] [µM] | GI50 [4] | TGI [4] | GI50 [5] [µM] | TGI [5] | GI50 [6] [µM] | TGI [6] | GI50 [7] [µM] | TGI [7] [µM] | GI50 [8] [µM] | TGI [8] [µM] | GI50 [9] | TGI [9] [µM] | GI50 [10] [µM] | TGI [10] [µM] |
| --- | --- | --- | --- | --- | --- | --- | --- | --- | --- | --- | --- | --- | --- | --- | --- | --- | --- | --- | --- | --- |
| Cn1cc(-c2csc(-c3cn(C(=O)OC(C)(C)C)c4ccccc34)n2)c2cccnc21 | 7.33 | 20.4 µM | 6.35 | 37.7 | 3.81 | 19.9 | 3.93 µM | 25.7 µM | 2.78 | 9.57 µM | 4.89 | 24.4 µM | 3.42 | 14.5 | 10.1 | 48.2 | 1.7 µM | 8.63 | 3.71 | 15.6 |
| CS(=O)(=O)CCNCc1ccoc1-c1ccc2ncnc(Nc3ccc(OCc4ccccc4)cc3)c2c1 | > 25 | > 25 µM | > 25 | > 25 | 1.98 | > 25 | 2.28 µM | > 25 µM | > 25 | > 25 µM | > 25 | > 25 µM | > 25 | > 25 | 1.5 | > 25 | > 7.41 µM | > 25 | 7.86 | > 25 |
| CC1=C(SCCC(=O)OC(C[Se]C2=C(C)C(=O)c3ccccc3C2=O)C(=O)NC(C)(C)C)C(=O)c2ccccc2C1=O (stereo not given) | 1.56 | 2.9 µM | 1.47 | 3.11 | 0.793 | 2.13 | 1.07 µM | 3.31 µM | 0.86 | 2.18 µM | 0.457 | 1.69 µM | 0.315 | 1.21 | 1.43 | 2.74 | 1.45 µM | 2.76 | 0.904 | 2.95 |
| COc1ccc2c(c1)[nH]c1c3ccc(OC)cc3oc(=O)c21 | – | > 100 µM | – | > 100 | – | > 100 | – | > 100 µM | – | > 100 µM | – | > 100 µM | – | > 100 | – | > 100 | – | > 100 | – | > 100 |
| CN1CCN(c2nc3cc(F)ccc3n3cccc23)CC1 | – | > 100 µM | – | > 100 | – | > 100 | – | 97.9 µM | – | > 100 µM | – | > 100 µM | – | 52.9 | – | > 100 | – | 90.7 | – | > 100 |
| COc1ccc(C2C3=C(COC3=O)N(CCO)c3cc4c(cc32)CCC4)cc1 (stereo not given) | 24 | > 50 µM | 6.04 | > 50 | > 50 | > 50 | 4.11 µM | 42 µM | 2.31 | > 50 µM | 6.22 | > 50 µM | 1.49 | 6.7 | 8.78 | > 50 | 1.46 µM | 13.7 | 3.87 | > 50 |
| CC1/C(=N/O)CC(c2ccccc2)N(N=O)C1c1ccccc1 (stereo not given) | – | > 100 µM | – | > 100 | – | > 100 | – | > 100 µM | – | > 100 µM | – | > 100 µM | – | > 100 | – | > 100 | – | > 100 | – | > 100 |
| C1CC[N-]CC1.CC(=N\O)/C(C)=N/O.CC(=N\O)/C(C)=N/O.C[CH-]C(C)O.[Co+2] | 23.8 | 81.2 µM | 30 | > 100 | 19.4 | 48.6 | 28 µM | 83.1 µM | 34.3 | > 100 µM | 26.7 | 70.8 µM | 88.5 | > 100 | 89 | > 100 | 19.5 µM | 71.4 | 12.6 | 41.1 |
| CCCC(=O)OC(OC(=O)CCC)c1ccc([N+](=O)[O-])o1 | – | 49.9 µM | – | 43.4 | – | 56.3 | – | > 100 µM | – | > 100 µM | – | > 100 µM | – | > 100 | – | > 100 | – | > 100 | – | 61.5 |
| CN(C)Cc1cc(C(C)(C)C)cc(CN(C)C)c1O | – | > 100 µM | – | > 100 | – | > 100 | – | > 100 µM | – | > 100 µM | – | > 100 µM | – | > 100 | – | > 100 | – | > 100 | – | > 100 |
| O=S(=O)(Nc1ccc(Cl)c(Cl)c1)c1ccc(-c2cnc(C3CC3)o2)cc1 | 0.606 | 30.7 µM | 0.405 | 15.7 | 0.367 | 12.5 | 0.455 µM | 30.7 µM | 0.371 | 15.4 µM | 0.474 | 14.5 µM | 0.337 | 11.4 | 0.713 | 39.7 | 0.138 µM | 0.558 | 0.349 | 18.6 |
| C=C1C(=O)OC2(C)CCC1CC1OC1(C)CCC=C(C)CCC2O (stereo not given) | – | > 100 µM | – | > 100 | – | > 100 | – | > 100 µM | – | > 100 µM | – | > 100 µM | – | > 100 | – | > 100 | – | > 100 | – | > 100 |
| CC(C)OP(=O)(OC(C)C)/C(C#N)=C/c1c[nH]c2ccccc12 | – | > 100 µM | – | > 100 | – | > 100 | – | > 100 µM | – | > 100 µM | – | > 100 µM | – | > 100 | – | > 100 | – | > 100 | – | > 100 |
| COc1cc2c(=O)n(CC3CCCCC3)c3c4cc[nH]c4ncc3c2cc1OC | 2.16 | 10.4 µM | 1.69 | > 50 | 0.137 | 2.78 | 0.719 µM | 4.09 µM | 0.0362 | 34.9 µM | 2.23 | 12.2 µM | 2.18 | 10.7 | 4.36 | 24.2 | 0.209 µM | 1.9 | 3.66 | > 50 |
| C=C(CN1CCN(c2ccc(F)c(Cl)c2)CC1)c1ccc(C(=O)Nc2ccccc2N)cc1 | 6.43 | > 100 µM | 5.38 | > 100 | 2.15 | 11.6 | 7.39 µM | > 100 µM | 4.07 | > 100 µM | 2.34 | 9.23 µM | 6.95 | > 100 | > 100 | > 100 | > 100 µM | > 100 | > 100 | > 100 |
| CCCCCCCCc1cc(O)ccc1O | 20.4 | 50.9 µM | 16.4 | 38 | 4.65 | 21.1 | 15.4 µM | 53.5 µM | 21.4 | 51.6 µM | 16 | 37.3 µM | 20.7 | 49 | 34.8 | > 100 | 13.3 µM | 47.3 | 14.2 | 37.6 |
| COc1ccc(F)cc1-c1ccnc2[nH]c(C3=CCN(C4CCC(CC(=O)O)CC4)CC3)cc12 (stereo not given) | 0.243 | > 100 µM | 0.249 | > 100 | 0.0568 | 0.666 | 0.177 µM | 0.965 µM | 0.0953 | > 100 µM | 0.313 | > 100 µM | 0.286 | 15.4 | 1.2 | > 100 | 0.13 µM | 0.381 | 0.187 | > 100 |
| N=C1C=C(N)C(=O)c2ccccc21 | 0.182 | 0.369 µM | 0.225 | 0.578 | 0.207 | 0.496 | 0.353 µM | – | 0.322 | 1.26 µM | 0.281 | 1.34 µM | 0.639 | 1.53 | 1.51 | 2.86 | 0.151 µM | 0.293 | 0.261 | 0.671 |
| O=C1CC2OCC=C3CN4CCC5(C(=O)O)C(N1)C2C3CC45 (stereo not given) | – | > 100 µM | – | > 100 | – | > 100 | – | > 100 µM | – | > 100 µM | – | > 100 µM | – | > 100 | – | > 100 | – | > 100 | – | > 100 |
| CSCC[C@H](NC(=O)[C@@H](N)CC(N)=O)C(=O)N[C@@H](Cc1c[nH]c2ccccc12)C(=O)N[C@@H](CCC(N)=O)C(=O)N[C@@H](CCC(=O)O)C(=O)N[C@H](C(=O)NCC(=O)N[C@@H](CCCCN)C(=O)N[C@H](C)C(=O)O)C(C)C (H-NMWQEVGK[dA]-OH) | – | > 100 µM | – | > 100 | – | > 100 | – | > 100 µM | – | > 100 µM | – | > 100 µM | – | > 100 | – | > 100 | – | > 100 | – | > 100 |
| C[C@@H](C[C@H](CCO)c1ccccc1)c1ccc2ccccc2c1 | 1.65 | 3.01 µM | 1.5 | 2.91 | 1.39 | 2.77 | 1.69 µM | 3.84 µM | 1.4 | 2.83 µM | 1.39 | 2.72 µM | 1.72 | 3.19 | 1.7 | 3.1 | 1.35 µM | 2.76 | 1.44 | 3.11 |
| Cc1c(C2CCSc3ccccc3N2)sc2ccccc12 (stereo not given) | – | > 100 µM | – | > 100 | – | > 100 | – | > 100 µM | – | > 100 µM | – | > 100 µM | – | > 100 | – | > 100 | – | > 100 | – | > 100 |
| COC(=O)Nc1nc2ccc(C(=O)c3cccs3)cc2[nH]1 | 1.24 | 87.5 µM and > 100 µM | 0.106 | – | > 100 | – | 0.0244 µM and 0.0882 µM | 50.9 µM and > 100 µM | 0.0541 | 41 µM and > 100 µM | 0.246 | 14.2 µM and > 100 µM | 0.109 | – | 0.347 | – | < 0.0192 µM and 0.171 µM | > 100 | > 100 | > 100 |
| O=C(/C=C/c1ccc(Cl)cc1Cl)c1ccc(Cl)cc1Cl | 22.1 | 47.9 µM | 14.4 | 31 | 50.8 | > 76.1 | 20.1 µM | 58.2 µM | 13.5 | 30.4 µM | 24.4 | 64.3 µM | 18.7 | 47.7 | 37.8 | > 100 | 40.5 µM | > 100 | 24.2 | > 72.7 |
| CNc1nc(-c2ccc3c(N)n[nH]c3c2)cc(N2C[C@@H](C(=O)NC3CCCCC3)CC[C@H]2C)n1 | 2.81 | 19.9 µM | 4.33 | 19.4 | 0.189 | 3.99 | 1.06 µM | 8.86 µM | 8.37 | 22.4 µM | 0.405 | 18.4 µM | 2.61 | 15.8 | 0.495 | 9.97 | 0.457 µM | 7.23 | 0.13 | 5.3 |
| CCOc1ccccc1N=Cc1c2ccccc2cc2ccccc12 | – | > 93.3 µM | – | > 83.5 | – | 53.4 | – | > 53.9 µM | – | 49.3 µM | – | > 68.8 µM | – | > 100 | – | 68.6 | – | 47.7 | – | 64.1 |
| CNC(=O)c1cc(-c2ccc(F)cc2)cc(-c2ccc(S(=O)(=O)N3CCCC3)cc2)c1N | 21.5 | > 25 µM | 9.68 | > 25 | 4.9 | > 25 | > 11.1 µM | > 25 µM | 16.6 | > 25 µM | 8.54 | > 25 µM | 10.6 | > 25 | > 25 | > 25 | 12.7 µM | > 25 | 10.5 | > 25 |
| CC[C@@H](C(=O)[C@@H](C)[C@@H](O)[C@H](C)[C@@H]1O[C@@H]([C@@H](CC)C(=O)O)CC[C@@H]1C)[C@H]1O[C@]2(C=C[C@@H](O)[C@]3(CC[C@@](C)([C@H]4CC[C@](O)(CC)[C@H](C)O4)O3)O2)[C@H](C)C[C@@H]1C | 1.39 | 49.2 µM | 0.912 | > 100 | 0.266 | 5.1 | 0.914 µM | 36.1 µM | 1.18 | 15.7 µM | 0.084 | 32.6 µM | 0.447 | 7.71 | 3.6 | 48 | 1.05 µM | 4.31 | 0.383 | 16.7 |
